Measured values as given in patent US20250302815A1, “PROTEIN TYROSINE PHOSPHATASE TARGETING LIGANDS” (CALICO LIFE SCIENCES LLC, priority 2021, published 2025).

Tests used:
PTPN2 (B16F10.4 cells) = target: T1, PTPN2 (B16F10.4 cells) (Mus musculus, UniProt Q06180); test: HiBiT Degradation B16F10.4 PTPN2; type: cell-based; details: 24.0 hours
T1 construct: HiBiT; host or cells: B16F10.4
T1 sequence (Q06180 1-406): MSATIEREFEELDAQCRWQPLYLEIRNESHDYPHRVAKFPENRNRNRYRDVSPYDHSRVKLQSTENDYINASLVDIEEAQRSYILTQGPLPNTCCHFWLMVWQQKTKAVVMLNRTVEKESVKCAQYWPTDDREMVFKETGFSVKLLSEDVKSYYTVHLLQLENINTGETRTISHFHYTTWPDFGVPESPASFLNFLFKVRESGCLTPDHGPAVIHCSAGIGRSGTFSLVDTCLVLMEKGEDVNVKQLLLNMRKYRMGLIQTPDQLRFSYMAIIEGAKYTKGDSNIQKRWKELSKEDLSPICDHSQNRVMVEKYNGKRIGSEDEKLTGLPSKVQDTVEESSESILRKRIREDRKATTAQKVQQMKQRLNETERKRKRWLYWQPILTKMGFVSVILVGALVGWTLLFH

[1] = target: T2, PTPN2 (HiBIT-PTPN2 in 293T.109 cells) (Homo sapiens, UniProt P17706); test: HiBiT Degradation 293T.109 PTPN2 (Nano-Glo HiBiT Lytic Assay); type: cell-based; details: 24.0 hours
T2 construct: expressed in transfected cells; host or cells: 293T.109 (293T WT from ATCC)
T2 sequence (P17706 1-415): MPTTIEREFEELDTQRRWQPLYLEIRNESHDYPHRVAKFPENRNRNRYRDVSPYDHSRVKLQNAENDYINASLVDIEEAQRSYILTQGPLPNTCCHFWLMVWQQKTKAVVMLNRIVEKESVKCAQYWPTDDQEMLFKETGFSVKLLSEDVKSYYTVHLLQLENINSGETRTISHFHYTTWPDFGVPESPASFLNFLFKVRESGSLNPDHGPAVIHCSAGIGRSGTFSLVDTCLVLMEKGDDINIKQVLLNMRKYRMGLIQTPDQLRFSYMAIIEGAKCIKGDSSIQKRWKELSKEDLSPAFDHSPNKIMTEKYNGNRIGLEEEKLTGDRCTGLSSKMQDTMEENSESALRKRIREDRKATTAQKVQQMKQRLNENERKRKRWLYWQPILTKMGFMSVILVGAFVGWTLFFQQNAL
Description: Dulbecco's modified Eagle medium (DMEM) without phenol red and fetal bovine serum (FBS) were purchased from Gibco (Grand Island, NY, USA). Nano-Glo® HiBIT Lytic Assay System was purchased from Promega (Madison, WI, USA). 293T.109 (HiBIT-PTPN2) cell line was generated by ectopically expressing PTPN2 with N-terminal HiBIT fusion tag in 293T WT cell line purchased from ATCC (Manassas, VA, USA). Cell culture flasks and 384-well microplates were acquired from VWR (Radnor, PA, USA).
PTPN2 degradation was determined based on quantification of luminescent signal using Nano-Glo® HiBIT Lytic Assay kit. Test compounds were added to the 384-well plate from a top concentration of 10 μM with 11 points, half log titration in duplicates. 293T.109 cells were added into 384-well plates at a cell density of 5000 cells per well. The plates were kept at 37° C. with 5% CO2 for 24 hours. The cells treated in the absence of the test compound were the negative control and the cells without Nano-Glo® HiBIT Lytic reagent were the positive control. After 24-hour incubation, Nano-Glo® HiBiT Lytic Assay reagents were added to the cells. Luminescence was acquired on EnVision™ Multilabel Reader (PerkinElmer, Santa Clara, CA, USA).

DC50 (PTPN2 (B16F10.4 cells)) | DC50 [1] | SMILES
≥ 1000 nM | ≥ 1000 nM | CN(c1cccc(-c2sc(C(=O)O)c(OCC(=O)O)c2Cl)c1)C1CCN(S(=O)(=O)Cc2cccc(NC(=O)CCn3cc(CNc4cccc5c4C(=O)N(C4CCC(=O)NC4=O)C5=O)nn3)c2)CC1 (stereo not shown) [Example 17, 3-(carboxymethoxy)-4-chloro-5-(3-((1-((3-(3-(4-(((2-(2,6-dioxopiperidin-3-yl)-1,3-dioxoisoindolin-4-yl)amino)methyl)-1H-1,2,3-triazol-1-yl)propanamido)benzyl)sulfonyl)piperidin-4-yl)(methyl)amino)phenyl)thiophene-2-carboxylic acid]
200 to 1000 nM | 200 to 1000 nM | CC1(C)C[C@@H](Nc2cccc(-c3sc(C(=O)O)c(OCC(=O)O)c3Cl)c2)CCN1S(=O)(=O)Cc1cccc(NC(=O)CCCCCCNC(=O)CNc2cccc3c2CN(C2CCC(=O)NC2=O)C3=O)c1 (stereo partly drawn) [Example 18, 3-(carboxymethoxy)-4-chloro-5-(3-(((4S)-1-((3-(7-(2-((2-(2,6-dioxopiperidin-3-yl)-1-oxoisoindolin-4-yl)amino)acetamido)heptanamido)benzyl)sulfonyl)-2,2-dimethylpiperidin-4-yl)amino)phenyl)thiophene-2-carboxylic acid]
200 to 1000 nM | 200 to 1000 nM | O=C(O)COc1c(C(=O)O)sc(-c2cccc(NC3CCN(S(=O)(=O)Cc4cccc(NC(=O)CCOCCOCCOCCCc5ccc6c(c5)CN(C5CCC(=O)NC5=O)C6=O)c4)CC3)c2)c1Cl (stereo not shown) [Example 19, 3-(carboxymethoxy)-4-chloro-5-(3-((1-((3-(3-(2-(2-(3-(2-(2,6-dioxopiperidin-3-yl)-1-oxoisoindolin-5-yl)propoxy)ethoxy)ethoxy)propanamido)benzyl)sulfonyl)piperidin-4-yl)amino)phenyl)thiophene-2-carboxylic acid]
≥ 1000 nM | 200 to 1000 nM | O=C(O)COc1c(C(=O)O)sc(-c2cccc(NC3CCN(S(=O)(=O)Cc4cccc(NC(=O)CCOCCOCCCc5cccc6c5C(=O)N(C5CCC(=O)NC5=O)C6=O)c4)CC3)c2)c1Cl (stereo not shown) [Example 20, 3-(carboxymethoxy)-4-chloro-5-[3-[[1-[[3-[3-[2-[3-[2-(2,6-dioxo-3-piperidyl)-1,3-dioxo-isoindolin-4-yl]propoxy]ethoxy]propanoylamino]phenyl]methylsulfonyl]-4-piperidyl]amino]phenyl]thiophene-2-carboxylic acid]
≥ 1000 nM | 200 to 1000 nM | O=C(O)COc1c(C(=O)O)sc(-c2cccc(NC3CCN(S(=O)(=O)Cc4cccc(NC(=O)CCCCCNC(=O)CNc5cccc6c5CN(C5CCC(=O)NC5=O)C6=O)c4)CC3)c2)c1Cl (stereo not shown) [Example 21, 3-(carboxymethoxy)-4-chloro-5-(3-((1-((3-(6-(2-((2-(2,6-dioxopiperidin-3-yl)-1-oxoisoindolin-4-yl)amino)acetamido)hexanamido)benzyl)sulfonyl)piperidin-4-yl)amino)phenyl)thiophene-2-carboxylic acid]
≥ 1000 nM | 200 to 1000 nM | O=C(O)COc1c(C(=O)O)sc(-c2cccc(NC3CCN(S(=O)(=O)Cc4cccc(NC(=O)CCCCNC(=O)CNc5cccc6c5CN(C5CCC(=O)NC5=O)C6=O)c4)CC3)c2)c1Cl (stereo not shown) [Example 22, 3-(carboxymethoxy)-4-chloro-5-(3-((1-((3-(5-(2-((2-(2,6-dioxopiperidin-3-yl)-1-oxoisoindolin-4-yl)amino)acetamido)pentanamido)benzyl)sulfonyl)piperidin-4-yl)amino)phenyl)thiophene-2-carboxylic acid]
200 to 1000 nM | 200 to 1000 nM | O=C(O)COc1c(C(=O)O)sc(-c2cccc(NC3CCN(S(=O)(=O)Cc4cccc(NC(=O)CNc5ccc6c(c5)C(=O)N(C5CCC(=O)NC5=O)C6=O)c4)CC3)c2)c1Cl (stereo not shown) [Example 23, 3-(carboxymethoxy)-4-chloro-5-[3-[[1-[[3-[[2-[[2-(2,6-dioxo-3-piperidyl)-1,3-dioxo-isoindolin-5-yl]amino]acetyl]amino]phenyl]methylsulfonyl]-4-piperidyl]amino]phenyl]thiophene-2-carboxylic acid]
≥ 1000 nM | 200 to 1000 nM | O=C(O)COc1c(C(=O)O)sc(-c2cccc(NC3CCN(S(=O)(=O)Cc4cccc(NC(=O)CCOCCNC(=O)CNc5ccc6c(c5)C(=O)N(C5CCC(=O)NC5=O)C6=O)c4)CC3)c2)c1Cl (stereo not shown) [Example 24, 3-(carboxymethoxy)-4-chloro-5-[3-[[1-[[3-[3-[2-[[2-[[2-(2,6-dioxo-3-piperidyl)-1,3-dioxo-isoindolin-5-yl]amino]acetyl]amino]ethoxy]propanoylamino]phenyl]methylsulfonyl]-4-piperidyl]amino]phenyl]thiophene-2-carboxylic acid]
200 to 1000 nM | 200 to 1000 nM | O=C(O)COc1c(C(=O)O)sc(-c2cccc(NC3CCN(S(=O)(=O)Cc4cccc(NC(=O)CCCCCCNC(=O)CNc5ccc6c(c5)CN(C5CCC(=O)NC5=O)C6=O)c4)CC3)c2)c1Cl (stereo not shown) [Example 25, 3-(carboxymethoxy)-4-chloro-5-[3-[[1-[[3-[7-[[2-[[2-(2,6-dioxo-3-piperidyl)-1-oxo-isoindolin-5-yl]amino]acetyl]amino]heptanoylamino]phenyl]methylsulfonyl]-4-piperidyl]amino]phenyl]thiophene-2-carboxylic acid]
≥ 1000 nM | 200 to 1000 nM | CC(Nc1cccc2c1CN(C1CCC(=O)NC1=O)C2=O)C(=O)NCCCCCCC(=O)Nc1cccc(CS(=O)(=O)N2CCC(Nc3cccc(-c4sc(C(=O)O)c(OCC(=O)O)c4Cl)c3)CC2)c1 (stereo not shown) [Example 26, 3-(carboxymethoxy)-4-chloro-5-[3-[[1-[[3-[7-[2-[[2-(2,6-dioxo-3-piperidyl)-1-oxo-isoindolin-4-yl]amino]propanoylamino]heptanoylamino]phenyl]methylsulfonyl]-4-piperidyl]amino]phenyl]thiophene-2-carboxylic acid]
≥ 1000 nM | 200 to 1000 nM | O=C(O)COc1c(C(=O)O)sc(-c2cccc(NC3CCN(S(=O)(=O)Cc4cccc(NC(=O)CCOCCCc5cccc6c5C(=O)N(C5CCC(=O)NC5=O)C6=O)c4)CC3)c2)c1Cl (stereo not shown) [Example 27, 3-(carboxymethoxy)-4-chloro-5-[3-[[1-[[3-[3-[3-[2-(2,6-dioxo-3-piperidyl)-1,3-dioxo-isoindolin-4-yl]propoxy]propanoylamino]phenyl]methylsulfonyl]-4-piperidyl]amino]phenyl]thiophene-2-carboxylic acid]
≥ 1000 nM | 200 to 1000 nM | CC1(C)C[C@@H](Nc2cccc(-c3sc(C(=O)O)c(OCC(=O)O)c3Cl)c2)CCN1S(=O)(=O)Cc1cccc(NC(=O)CCCNC(=O)CNc2cccc3c2CN(C2CCC(=O)NC2=O)C3=O)c1 (stereo partly drawn) [Example 28, 3-(carboxymethoxy)-4-chloro-5-(3-(((4S)-1-((3-(4-(2-((2-(2,6-dioxopiperidin-3-yl)-1-oxoisoindolin-4-yl)amino)acetamido)butanamido)benzyl)sulfonyl)-2,2-dimethylpiperidin-4-yl)amino)phenyl)thiophene-2-carboxylic acid]
200 to 1000 nM | 200 to 1000 nM | CC1(C)C[C@@H](Nc2cccc(-c3sc(C(=O)O)c(OCC(=O)O)c3Cl)c2)CCN1S(=O)(=O)Cc1cccc(NC(=O)COc2cccc3c2CN(C2CCC(=O)NC2=O)C3=O)c1 (stereo partly drawn) [Example 29, 3-(carboxymethoxy)-4-chloro-5-[3-[[(4S)-1-[[3-[[2-[2-(2,6-dioxo-3-piperidyl)-1-oxo-isoindolin-4-yl]oxyacetyl]amino]phenyl]methylsulfonyl]-2,2-dimethyl-4-piperidyl]amino]phenyl]thiophene-2-carboxylic acid]
≥ 1000 nM | 200 to 1000 nM | O=C(O)COc1c(C(=O)O)sc(-c2cccc(NC3CCN(S(=O)(=O)Cc4cccc(NC(=O)CCCCCCNC(=O)CNc5cccc6c5C(=O)N(C5CCC(=O)NC5=O)C6)c4)CC3)c2)c1Cl (stereo not shown) [Example 30, 3-(carboxymethoxy)-4-chloro-5-[3-[[1-[[3-[7-[[2-[[2-(2,6-dioxo-3-piperidyl)-3-oxo-isoindolin-4-yl]amino]acetyl]amino]heptanoylamino]phenyl]methylsulfonyl]-4-piperidyl]amino]phenyl]thiophene-2-carboxylic acid]
